Data reported in ChEMBL document CHEMBL4184185, “Dihydrobenzisoxazole-4-one compounds are novel selective inhibitors of aldosterone synthase (CYP11B2) with in vivo activity” (Bioorg Med Chem Lett, 2018).
The source made the active and inactive calls. No cut-off for these calls is given here.

Columns and labels:
[1] = Inhibition of cynomolgus monkey adrenal mitochondrial CYP11B2 using corticosterone as substrate after 60 mins in presence of NADPH by mass spectrometric analysis
[2] = Clearance in human liver microsomes relative to hepatic blood flow; assay type: ADME, microsome; conditions: read-out: CLH
[3] = Inhibition of cynomolgus monkey adrenal mitochondrial CYP11B1 using 11-deoxycortisol as substrate after 90 mins in presence of NADPH by mass spectrometric analysis
Macaca fascicularis [4] = species on record: Macaca fascicularis; experiment: Selectivity index, ratio of IC50 for cynomolgus monkey adrenal mitochondrial CYP11B1 to IC50 for cynomolgus monkey adrenal mitochondrial CYP11B2
Macaca fascicularis [5] = species on record: Macaca fascicularis; experiment: Inhibition of cynomolgus monkey adrenal mitochondrial CYP11B2 at 1 uM using corticosterone as substrate after 60 mins in presence of NADPH by mass spectrometric analysis
[6] = target: T1, Cytochrome P450 11B2, mitochondrial (Homo sapiens, UniProt P19099); experiment: Inhibition of recombinant human CYP11B2 expressed in Chinese hamster V79MZ cells assessed as reduction in aldosterone production at 20 uM by mass spectrometric method; assay type: cell-based
T1 sequence (P19099 whole entry): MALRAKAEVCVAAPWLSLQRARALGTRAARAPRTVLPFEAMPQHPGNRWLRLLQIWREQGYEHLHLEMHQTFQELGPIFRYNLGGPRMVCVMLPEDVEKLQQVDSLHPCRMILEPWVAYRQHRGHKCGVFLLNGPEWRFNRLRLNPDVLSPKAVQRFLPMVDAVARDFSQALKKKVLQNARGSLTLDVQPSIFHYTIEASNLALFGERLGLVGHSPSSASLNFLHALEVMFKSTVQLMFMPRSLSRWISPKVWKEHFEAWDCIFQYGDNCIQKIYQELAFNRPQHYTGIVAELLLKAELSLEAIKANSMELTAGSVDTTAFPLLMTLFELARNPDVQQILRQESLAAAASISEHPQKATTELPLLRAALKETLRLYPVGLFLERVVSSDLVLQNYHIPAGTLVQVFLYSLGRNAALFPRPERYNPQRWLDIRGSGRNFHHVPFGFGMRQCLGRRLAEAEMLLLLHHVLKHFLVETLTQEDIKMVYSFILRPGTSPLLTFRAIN

[7] = target: T1, Cytochrome P450 11B2, mitochondrial; experiment: Inhibition of recombinant human CYP11B2 expressed in Chinese hamster V79MZ cells assessed as reduction in aldosterone production at 1 uM by mass spectrometric method; assay type: cell-based
Aromatase [8] = target: T2, Aromatase (Homo sapiens, UniProt P11511); experiment: Inhibition of CYP19A1 (unknown origin)
T2 sequence (P11511 whole entry): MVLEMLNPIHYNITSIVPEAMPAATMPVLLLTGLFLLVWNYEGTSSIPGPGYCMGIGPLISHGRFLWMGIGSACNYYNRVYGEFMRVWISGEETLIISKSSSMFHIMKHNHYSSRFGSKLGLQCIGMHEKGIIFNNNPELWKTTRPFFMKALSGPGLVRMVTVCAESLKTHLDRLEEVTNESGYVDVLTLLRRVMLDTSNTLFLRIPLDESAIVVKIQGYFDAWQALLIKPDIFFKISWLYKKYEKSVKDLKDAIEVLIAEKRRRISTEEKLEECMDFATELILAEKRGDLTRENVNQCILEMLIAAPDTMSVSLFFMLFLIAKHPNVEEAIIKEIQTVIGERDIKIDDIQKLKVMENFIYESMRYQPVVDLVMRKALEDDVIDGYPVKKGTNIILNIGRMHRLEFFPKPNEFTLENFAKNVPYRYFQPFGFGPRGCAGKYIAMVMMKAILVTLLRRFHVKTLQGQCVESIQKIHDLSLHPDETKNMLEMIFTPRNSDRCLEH

[9] = target: T3, Steroid 17-alpha-hydroxylase/17,20 lyase (Homo sapiens, UniProt P05093); experiment: Inhibition of CYP17A1 (unknown origin); assay type: ADME
T3 sequence (P05093 whole entry): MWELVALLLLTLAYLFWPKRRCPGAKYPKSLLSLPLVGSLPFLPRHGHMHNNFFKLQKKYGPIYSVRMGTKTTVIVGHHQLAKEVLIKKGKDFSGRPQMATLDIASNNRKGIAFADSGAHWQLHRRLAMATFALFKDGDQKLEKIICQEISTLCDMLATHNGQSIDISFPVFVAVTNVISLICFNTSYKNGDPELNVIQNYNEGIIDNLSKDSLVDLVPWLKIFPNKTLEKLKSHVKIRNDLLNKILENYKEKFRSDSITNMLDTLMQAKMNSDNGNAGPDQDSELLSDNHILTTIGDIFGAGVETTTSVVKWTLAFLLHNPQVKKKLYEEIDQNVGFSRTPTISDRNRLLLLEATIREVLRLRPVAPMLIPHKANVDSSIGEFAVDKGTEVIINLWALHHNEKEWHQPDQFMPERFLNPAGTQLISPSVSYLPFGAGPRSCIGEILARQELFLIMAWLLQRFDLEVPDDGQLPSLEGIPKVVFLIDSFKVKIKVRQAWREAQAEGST

[10] = Clearance in human hepatocytes relative to hepatic blood flow; assay type: ADME, cell-based, Hepatocyte; conditions: read-out: CLH
[11] = Clearance in cynomolgus monkey hepatocytes relative to hepatic blood flow; assay type: ADME, cell-based, Macaca fascicularis, Hepatocyte; conditions: read-out: CLH
[12] = Clearance in Beagle dog hepatocytes relative to hepatic blood flow; assay type: ADME, cell-based, Canis lupus familiaris, Hepatocyte; conditions: read-out: CLH
Canis familiaris = experiment: Clearance in iv dosed Beagle dog relative to hepatic blood flow; assay type: ADME, organism-based, Canis lupus familiaris; conditions: in vivo
Cynomolgus monkey = experiment: Clearance in iv dosed cynomolgus monkey relative to hepatic blood flow; assay type: ADME, organism-based, Macaca fascicularis; conditions: in vivo
Cytochrome P450 2C9 = Cytochrome P450 2C9 (Homo sapiens, UniProt P11712); experiment: Inhibition of CYP2C9 (unknown origin) at 30 uM; assay type: ADME
[13] = Clearance in Wistar Han rat hepatocytes relative to hepatic blood flow; assay type: ADME, cell-based, Hepatocyte; conditions: read-out: CLH
Aromatase [14] = target: T2, Aromatase; experiment: Inhibition of CYP19A1 (unknown origin) at 20 uM
Rattus norvegicus = experiment: Clearance in iv dosed Wistar Han rat relative to hepatic blood flow; assay type: ADME, organism-based; conditions: in vivo
[15] = Oral bioavailability in Wistar Han rat; assay type: ADME, organism-based; conditions: in vivo
Cytochrome P450 2D6 = Cytochrome P450 2D6 (Homo sapiens, UniProt P10635); experiment: Inhibition of CYP2D6 (unknown origin) at 30 uM; assay type: ADME
[16] = Drug metabolism in human hepatocytes assessed as parent compound remaining at 10 uM after 30 mins by LC-MS/MS analysis; assay type: ADME, cell-based, Hepatocyte; conditions: read-out: Stability
[17] = Oral bioavailability in Beagle dog; assay type: ADME, organism-based, Canis lupus familiaris; conditions: in vivo
Cytochrome P450 3A4 = Cytochrome P450 3A4 (Homo sapiens, UniProt P08684); experiment: Inhibition of CYP3A4 (unknown origin) at 30 uM; assay type: ADME
[18] = target: T1, Cytochrome P450 11B2, mitochondrial; experiment: Inhibition of recombinant human CYP11B2 expressed in Chinese hamster V79MZ cells assessed as reduction in aldosterone production by mass spectrometric method; assay type: cell-based
[19] = Drug metabolism in human hepatocytes assessed as 3-(4-fluorobenzyl)-6,6-dimethyl-4,5,6,7-tetrahydrobenzo[c]isoxazol-4-ol formation at 10 uM after 30 mins by LC-MS/MS analysis; assay type: ADME, cell-based, Hepatocyte; conditions: 0.5 h
[20] = Drug metabolism in human hepatocytes at 10 uM after 30 mins by LC-MS/MS analysis; assay type: ADME, cell-based, Hepatocyte; conditions: read-out: Drug metabolism
[21] = Drug metabolism in human hepatocytes assessed as 3-Amino-2-[2-(4-fluoro-phenyl)-acetyl]-5,5-dimethyl-cyclohex-2-enone metabolite formation at 10 uM after 30 mins by LC-MS/MS analysis; assay type: ADME, cell-based, Hepatocyte; conditions: 0.5 h
[22] = Drug metabolism in human hepatocytes assessed as 3-Amino-2-[2-(4-fluoro-phenyl)-acetyl]-5,5-dimethyl-cyclohex-2-enone metabolite formation at 10 uM after 30 mins by HPLC analysis; assay type: ADME, cell-based, Hepatocyte; conditions: 0.5 h
[23] = target: T3, Steroid 17-alpha-hydroxylase/17,20 lyase; experiment: Inhibition of CYP17A1 (unknown origin) at 20 uM; assay type: ADME

Sequence of Cytochrome P450 2D6 (P10635 whole entry): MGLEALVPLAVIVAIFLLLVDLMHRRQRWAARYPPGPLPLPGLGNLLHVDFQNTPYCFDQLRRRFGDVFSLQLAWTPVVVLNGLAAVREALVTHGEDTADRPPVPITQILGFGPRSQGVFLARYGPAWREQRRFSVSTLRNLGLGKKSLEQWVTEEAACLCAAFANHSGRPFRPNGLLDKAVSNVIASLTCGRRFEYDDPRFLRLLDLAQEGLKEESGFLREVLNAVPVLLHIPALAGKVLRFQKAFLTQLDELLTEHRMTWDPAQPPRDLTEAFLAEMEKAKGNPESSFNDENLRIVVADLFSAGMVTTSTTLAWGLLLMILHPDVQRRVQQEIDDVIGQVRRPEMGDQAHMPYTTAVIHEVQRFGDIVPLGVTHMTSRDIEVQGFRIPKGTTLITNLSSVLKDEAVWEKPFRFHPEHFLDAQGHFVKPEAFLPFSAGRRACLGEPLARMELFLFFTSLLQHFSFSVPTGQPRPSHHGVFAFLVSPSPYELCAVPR
Sequence of Cytochrome P450 2C9 (P11712 whole entry): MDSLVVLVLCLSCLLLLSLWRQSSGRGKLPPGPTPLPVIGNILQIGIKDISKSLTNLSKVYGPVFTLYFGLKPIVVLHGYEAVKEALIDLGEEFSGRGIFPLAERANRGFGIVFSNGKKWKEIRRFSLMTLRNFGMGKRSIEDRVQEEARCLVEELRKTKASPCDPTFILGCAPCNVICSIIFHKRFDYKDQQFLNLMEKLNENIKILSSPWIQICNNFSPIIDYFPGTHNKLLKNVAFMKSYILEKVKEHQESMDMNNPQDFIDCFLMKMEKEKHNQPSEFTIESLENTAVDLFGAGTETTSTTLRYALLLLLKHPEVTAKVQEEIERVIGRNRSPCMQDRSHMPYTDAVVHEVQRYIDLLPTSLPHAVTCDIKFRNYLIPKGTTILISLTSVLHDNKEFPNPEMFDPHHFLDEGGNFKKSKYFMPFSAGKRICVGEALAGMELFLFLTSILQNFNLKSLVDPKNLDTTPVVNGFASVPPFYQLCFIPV
Sequence of Cytochrome P450 3A4 (P08684 whole entry): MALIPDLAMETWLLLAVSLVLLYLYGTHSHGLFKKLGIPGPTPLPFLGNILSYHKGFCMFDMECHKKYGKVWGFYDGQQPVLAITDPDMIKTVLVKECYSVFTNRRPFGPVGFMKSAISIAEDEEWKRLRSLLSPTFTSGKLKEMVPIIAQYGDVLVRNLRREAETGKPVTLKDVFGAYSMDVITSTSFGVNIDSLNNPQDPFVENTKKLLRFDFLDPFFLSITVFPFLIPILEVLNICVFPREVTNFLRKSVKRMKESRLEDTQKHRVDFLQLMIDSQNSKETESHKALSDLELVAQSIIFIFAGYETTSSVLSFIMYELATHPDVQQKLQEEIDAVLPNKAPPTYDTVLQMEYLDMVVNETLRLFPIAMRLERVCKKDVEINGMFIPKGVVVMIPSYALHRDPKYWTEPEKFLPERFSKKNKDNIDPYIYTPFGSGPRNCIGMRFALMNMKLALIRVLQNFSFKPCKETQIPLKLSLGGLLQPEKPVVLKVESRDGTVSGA

Row | pIC50 [1] | hepatic extraction ratio [2] | pIC50 [3] | Ratio IC50 (Macaca fascicularis [4]) | Structure (SMILES) | other results
1 | 6.1 | 0.73 | 4.6 | 32 | O=C1CCCc2noc(Cc3ccccc3)c21 | 
2 |  |  |  |  | CC1(C)CC(=O)C(C(=O)Cc2ccc(F)cc2)=C(N)C1 | inhibition (Macaca fascicularis [5]): inactive
3 | < 4.7 |  |  |  | Clc1ccc(-c2ccno2)cc1Cl | inhibition (INH) [6]: Not Active
4 | 7.6 | 0.73 | 5.5 | 130 | CC1CC(=O)c2c(noc2Cc2ccccc2)C1 (centres undefined) | 
5 | 5.3 |  |  |  | Clc1ccc(-c2ccn[nH]2)cc1Cl | inhibition (INH) [6]: Not Active
6 | 6.7 | 0.38 | 5.1 | 39 | CC1CC(=O)c2c(noc2Cc2ccc(C#N)cc2)C1 (centres undefined) | 
7 | < 6 |  |  |  | CC1(C)CC(=O)c2c(n[nH]c2Cc2ccc(C#N)cc2)C1 | inhibition at 1 µM [7]: 54%
8 | 6.8 | 0.83 | 5.6 | 15 | N#Cc1ccc(Cc2onc3c2C(=O)CC(C2CC2)C3)cc1 (centres undefined) | 
9 |  |  |  |  | CC1(C)Cc2noc(Cc3ccc(F)cc3)c2C(O)C1 (centres undefined) | inhibition (Macaca fascicularis [5]): inactive
10 | 8.4 |  | 6 | 230 | CN1C(=O)CCc2cc(-c3cccnc3)ccc21 | IC50 (Aromatase [8]): 0.1 µM; IC50 [9]: 0.316 µM
11 | 7.1 | < 0.24 | 5.4 | 42 | CC1(C)CC(=O)c2c(noc2Cc2ccc(S(C)(=O)=O)cc2)C1 | hepatic extraction ratio [10]: 0.59; IC50 [9]: > 31.6 µM
12 | 7 | < 0.24 | 5 | 160 | CC1(C)CC(=O)c2c(noc2Cc2ccc(C(=O)N3CC[C@@H](O)C3)cc2)C1 | hepatic extraction ratio [11]: 0.28; hepatic extraction ratio [12]: < 0.3; IC50 (Aromatase [8]): > 20 µM; CL (Canis familiaris): 35%; hepatic extraction ratio [10]: < 0.24; CL (Cynomolgus monkey): 75%; inhibition (INH) (Cytochrome P450 2C9): Not Active; hepatic extraction ratio [13]: 0.52; inhibition (INH) (Aromatase [14]): Not Active; CL (Rattus norvegicus): 31%; bioavailability [15]: 11%; inhibition (INH) (Cytochrome P450 2D6): Not Active; remaining at 0.5 h, 10 µM [16]: 98%; bioavailability [17]: 85%; inhibition (INH) (Cytochrome P450 3A4): Not Active
13 | 7.7 |  | 7.4 |  | N#Cc1ccc([C@H]2CCc3cncn32)c(F)c1 [OSILODROSTAT] | IC50 [9]: 3.98 µM
14 | 6.8 | < 0.24 | 5 | 64 | CN1CCN(C(=O)c2ccc(Cc3onc4c3C(=O)CC(C)(C)C4)cc2)CC1=O | IC50 (Aromatase [8]): > 31.6 µM; hepatic extraction ratio [10]: 0.41; inhibition (INH) (Cytochrome P450 2C9): Not Active; inhibition (INH) (Aromatase [14]): Not Active; inhibition (INH) (Cytochrome P450 2D6): Not Active; inhibition (INH) (Cytochrome P450 3A4): Not Active
15 | < 6 | 0.85 | 4.3 | < 53 | CC1(C)CC(=O)c2c(noc2-c2ccccc2)C1 | IC50 [9]: > 31.6 µM
16 | 7.2 |  |  |  | Clc1ccc(-n2ccnc2)cc1Cl | inhibition (INH) [6]: Not Active
17 | 7.1 | 0.55 | 4.1 | 940 | CC1(C)CC(=O)c2c(noc2Cc2ccc(C#N)cc2)C1 | inhibition (INH) [18]: Active
18 | 7 |  |  |  | CC1(C)CC(=O)c2c(ncn2Cc2ccccc2)C1 | 
19 | 6.8 | < 0.24 | 4.7 | 130 | CC1(C)CC(=O)c2c(noc2Cc2ccc(F)cc2)C1 | Drug metabolism [19]: Metabolite_Detected; hepatic extraction ratio [10]: 0.91; metabolised at 0.5 h, 10 µM [20]: 72%; Drug metabolism [21]: Metabolite_Detected; remaining at 0.5 h, 10 µM [16]: 28%; Drug metabolism [22]: Metabolite_Detected
20 | 6.8 | 0.37 | 5.5 | 17 | CC1(C)CCc2c(noc2Cc2ccc(C#N)cc2)C1 | 
21 | 7.8 | 0.86 | 5.8 | 95 | COc1ccc(Cc2onc3c2C(=O)CC(C)(C)C3)cc1 | IC50 (Aromatase [8]): > 31.6 µM; IC50 [9]: > 31.6 µM
22 | 7.1 | 0.64 | 5.1 | 100 | CC1(C)CC(=O)c2c(noc2Cc2ccccc2)C1 | IC50 [1]: 0.079 µM; inhibition (INH) [18]: Active; IC50 (Aromatase [8]): > 31.6 µM; IC50 [9]: > 31.6 µM; inhibition (INH) (Cytochrome P450 2C9): Not Active; inhibition (INH) (Aromatase [14]): Not Active; inhibition (INH) (Cytochrome P450 2D6): Not Active; inhibition (INH) [23]: Not Active; inhibition (INH) (Cytochrome P450 3A4): Not Active
23 | 7 | 0.33 | 4.8 | 150 | CC1(C)CC(=O)c2c(noc2Cc2ccc(C(N)=O)cc2)C1 | hepatic extraction ratio [11]: 0.22; IC50 (Aromatase [8]): > 20 µM; hepatic extraction ratio [10]: 0.33; CL (Cynomolgus monkey): 57%; inhibition (INH) (Cytochrome P450 2C9): Not Active; hepatic extraction ratio [13]: 0.6; inhibition (INH) (Aromatase [14]): Not Active; CL (Rattus norvegicus): 62%; bioavailability [15]: 8%; inhibition (INH) (Cytochrome P450 2D6): Not Active; remaining at 0.5 h, 10 µM [16]: 55%; inhibition (INH) (Cytochrome P450 3A4): Not Active
